Assay results published in patent US10538555B2, “Macrocyclic inhibitors of the PD-1/PD-L1 and CD80(B7-1)/PD-L1 protein/protein interactions” (BRISTOL-MYERS SQUIBB COMPANY, priority 2014, dated 2020).
*1 amine or outer side, *2 acyl side, *3 side chain or, on linkers, in order; H or OH if unused. Where a SMILES comes first, the peptide text is derived from it. Bridges are numbered along the chain shown (N, C = ends). [ ]: non-standard residue; d: D form. ξ: configuration not given here. X7 = CCCC[C@@H](C(=O)C[C@@H](CO)C(=O)[*:2])N(C)[*:1]; Bta = N[C@@H](Cc1csc2ccccc12)C(=O)O; Hyp = O=C(O)[C@@H]1C[C@@H](O)CN1; NMeNle = CCCC[C@H](NC)C(=O)O; hSer = N[C@@H](CCO)C(=O)O; NMeA = CN[C@@H](C)C(=O)O; Orn = NCCC[C@H](N)C(=O)O; ξC = NC(CS)C(=O)O

Molecular target: T1, Human PD-L1/PD-1 (Homo sapiens, UniProt Q9NZQ7)
T1 construct: TVMV protease cleavage site (C); made in house; host or cells: HEK293T cells
T1 sequence (Q9NZQ7 with tags, fused parts or gaps): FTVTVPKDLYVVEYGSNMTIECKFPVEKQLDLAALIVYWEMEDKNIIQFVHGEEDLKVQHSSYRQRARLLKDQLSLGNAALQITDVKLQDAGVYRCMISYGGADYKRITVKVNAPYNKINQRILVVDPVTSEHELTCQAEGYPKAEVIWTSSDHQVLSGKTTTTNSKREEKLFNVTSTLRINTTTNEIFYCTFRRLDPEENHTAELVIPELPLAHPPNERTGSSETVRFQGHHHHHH
Assay: HTRF Human PD-L1/PD-1 binding assay (PD-1-Ig/PD-L1-His)
Settings: PD-L1-His 10 nM, PD-1-Ig 20 nM; class symbol; read-out: HTRF Human PD-L1/PD-1 Binding Assay IC50 Range
Outline: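 HTRF read-out (665/620 nm ratio) after 30 min equilibration with Eu-cryptate anti-Ig mAb (1 nM) and APC anti-His mAb (20 nM). Peptides preincubated 15 min with PD-L1-His (10 nM), then PD-1-Ig (20 nM) added for 15 min.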

Row | IC50 | SMILES
1 | 1 to 9.9 nM | CCCC[C@H]1C(=O)N(C)[C@@H](CCCC)C(=O)N[C@@H](CO)C(=O)NC(C(=O)NCC(N)=O)CSCC(=O)N[C@@H](Cc2ccc(O)cc2)C(=O)N(C)[C@@H](C)C(=O)N[C@@H](CC(N)=O)C(=O)N2CCC[C@H]2C(=O)N[C@@H](CC(N)=O)C(=O)N[C@@H](CC(C)C)C(=O)N2CCC[C@H]2C(=O)N[C@@H](Cc2c[nH]c3ccccc23)C(=O)N[C@@H](CO)C(=O)N[C@@H](Cc2c[nH]c3ccccc23)C(=O)N1C (stereo partly shown) [Example 9140] ({CH2CO}-Y[NMeA]NPNLPWSW[NMeNle][NMeNle]S[ξC]G-NH2; thioether N-14)
2 | 10 to 99.9 nM | CCCC[C@H]1C(=O)N(C)[C@@H](CCCC)C(=O)C[C@@H](CO)C(=O)NC(C(=O)NCC(N)=O)CSCC(=O)N[C@@H](Cc2ccc(O)cc2)C(=O)N(C)[C@@H](C)C(=O)N[C@@H](CC(N)=O)C(=O)N2CCC[C@H]2C(=O)N[C@@H](CC(N)=O)C(=O)N[C@@H](CC(C)C)C(=O)N2CCC[C@H]2C(=O)N[C@@H](Cc2c[nH]c3ccccc23)C(=O)N[C@@H](CO)C(=O)N[C@@H](Cc2csc3ccccc23)C(=O)N1C (stereo partly shown) [Example 9141] ({CH2CO}-Y[NMeA]NPNLPWS[Bta][NMeNle][X7][ξC]G-NH2; thioether N-13)
3 | 10 to 99.9 nM | CCCC[C@H]1C(=O)N(C)[C@@H](CCCC)C(=O)N[C@@H](CO)C(=O)NC(C(=O)NCC(N)=O)CSCC(=O)N[C@@H](Cc2ccc(O)cc2)C(=O)N(C)[C@@H](C)C(=O)N[C@@H](CC(N)=O)C(=O)N2CCC[C@H]2C(=O)N[C@@H](CC(N)=O)C(=O)N[C@@H](CC(C)C)C(=O)N2C[C@H](O)C[C@H]2C(=O)N[C@@H](Cc2c[nH]c3ccccc23)C(=O)N[C@@H](CO)C(=O)N[C@@H](Cc2csc3ccccc23)C(=O)N1C (stereo partly shown) [Example 9143] ({CH2CO}-Y[NMeA]NPNL[Hyp]WS[Bta][NMeNle][NMeNle]S[ξC]G-NH2; thioether N-14)
4 | 1 to 9.9 nM | CCCC[C@H]1C(=O)N(C)[C@@H](CCCC)C(=O)N[C@@H](CCCN)C(=O)NC(C(=O)NCC(N)=O)CSCC(=O)N[C@@H](Cc2ccc(O)cc2)C(=O)N(C)[C@@H](C)C(=O)N[C@@H](CC(N)=O)C(=O)N2CCC[C@H]2C(=O)N[C@@H](CC(N)=O)C(=O)N[C@@H](CC(C)C)C(=O)N2CCC[C@H]2C(=O)N[C@@H](Cc2c[nH]c3ccccc23)C(=O)N[C@@H](CO)C(=O)N[C@@H](Cc2csc3ccccc23)C(=O)N1C (stereo partly shown) [Example 9156] ({CH2CO}-Y[NMeA]NPNLPWS[Bta][NMeNle][NMeNle][Orn][ξC]G-NH2; thioether N-14)
5 | 1 to 9.9 nM | CCCC[C@H]1C(=O)N(C)[C@@H](CCCC)C(=O)N[C@@H](CCCN)C(=O)NC(C(=O)NCC(N)=O)CSCC(=O)N[C@@H](Cc2ccc(O)cc2)C(=O)N(C)[C@@H](C)C(=O)N[C@@H](CC(N)=O)C(=O)N2CCC[C@H]2C(=O)N[C@@H](CC(N)=O)C(=O)N[C@@H](CC(C)C)C(=O)N2C[C@H](O)C[C@H]2C(=O)N[C@@H](Cc2c[nH]c3ccccc23)C(=O)N[C@@H](CO)C(=O)N[C@@H](Cc2csc3ccccc23)C(=O)N1C (stereo partly shown) [Example 9158] ({CH2CO}-Y[NMeA]NPNL[Hyp]WS[Bta][NMeNle][NMeNle][Orn][ξC]G-NH2; thioether N-14)
6 | 1 to 9.9 nM | CCCC[C@H]1C(=O)N(C)[C@@H](CCCC)C(=O)N[C@@H](CC(C)C)C(=O)NC(C(=O)NCC(N)=O)CSCC(=O)N[C@@H](Cc2ccc(O)cc2)C(=O)N(C)[C@@H](C)C(=O)N[C@@H](CC(N)=O)C(=O)N2CCC[C@H]2C(=O)N[C@@H](CC(N)=O)C(=O)N[C@@H](CC(C)C)C(=O)N2CCC[C@H]2C(=O)N[C@@H](Cc2c[nH]c3ccccc23)C(=O)N[C@@H](CO)C(=O)N[C@@H](Cc2c[nH]c3ccccc23)C(=O)N1C (stereo partly shown) [Example 9159] ({CH2CO}-Y[NMeA]NPNLPWSW[NMeNle][NMeNle]L[ξC]G-NH2; thioether N-14)

The next lines start with the compound.

Row | SMILES | IC50
7 | CCCC[C@H]1C(=O)N(C)[C@@H](CCCC)C(=O)N[C@@H](CO)C(=O)NC(C(=O)NCC(N)=O)CSCC(=O)N[C@@H](Cc2ccc(O)cc2)C(=O)N(C)[C@@H](C)C(=O)N[C@@H](CC(N)=O)C(=O)N2CCC[C@H]2C(=O)N[C@@H](CC(N)=O)C(=O)N[C@@H](CC(C)C)C(=O)N2C[C@H](O)C[C@H]2C(=O)N[C@@H](Cc2c[nH]c3ccccc23)C(=O)N[C@@H](CO)C(=O)N[C@@H](Cc2c[nH]c3ccccc23)C(=O)N1C (stereo partly shown) [Example 9142] ({CH2CO}-Y[NMeA]NPNL[Hyp]WSW[NMeNle][NMeNle]S[ξC]G-NH2; thioether N-14) | 1 to 9.9 nM
8 | CCCC[C@H]1C(=O)N(C)[C@@H](CCCC)C(=O)N[C@@H](CCCNC(=N)N)C(=O)NC(C(=O)NCC(N)=O)CSCC(=O)N[C@@H](Cc2ccc(O)cc2)C(=O)N(C)[C@@H](C)C(=O)N[C@@H](Cc2cnc[nH]2)C(=O)N2CCC[C@H]2C(=O)N[C@@H](CC(N)=O)C(=O)N[C@@H](CC(C)C)C(=O)N2CCC[C@H]2C(=O)N[C@@H](Cc2c[nH]c3ccccc23)C(=O)N[C@@H](CO)C(=O)N[C@@H](Cc2c[nH]c3ccccc23)C(=O)N1C (stereo partly shown) [Example 9144] ({CH2CO}-Y[NMeA]HPNLPWSW[NMeNle][NMeNle]R[ξC]G-NH2; thioether N-14) | 1 to 9.9 nM
9 | CCCC[C@H]1C(=O)N(C)[C@@H](CCCC)C(=O)N[C@@H](CCCNC(=N)N)C(=O)NC(C(=O)NCC(N)=O)CSCC(=O)N[C@@H](Cc2ccc(O)cc2)C(=O)N(C)[C@@H](C)C(=O)N[C@@H](Cc2cnc[nH]2)C(=O)N2CCC[C@H]2C(=O)N[C@@H](CC(N)=O)C(=O)N[C@@H](CC(C)C)C(=O)N2CCC[C@H]2C(=O)N[C@@H](Cc2c[nH]c3ccccc23)C(=O)N[C@@H](CO)C(=O)N[C@@H](Cc2csc3ccccc23)C(=O)N1C (stereo partly shown) [Example 9145] ({CH2CO}-Y[NMeA]HPNLPWS[Bta][NMeNle][NMeNle]R[ξC]G-NH2; thioether N-14) | 1 to 9.9 nM
10 | CCCC[C@H]1C(=O)N(C)[C@@H](CCCC)C(=O)N[C@@H](CCCNC(=N)N)C(=O)NC(C(=O)NCC(N)=O)CSCC(=O)N[C@@H](Cc2ccc(O)cc2)C(=O)N(C)[C@@H](C)C(=O)N[C@@H](Cc2cnc[nH]2)C(=O)N2CCC[C@H]2C(=O)N[C@@H](CC(N)=O)C(=O)N[C@@H](CC(C)C)C(=O)N2C[C@H](O)C[C@H]2C(=O)N[C@@H](Cc2c[nH]c3ccccc23)C(=O)N[C@@H](CO)C(=O)N[C@@H](Cc2c[nH]c3ccccc23)C(=O)N1C (stereo partly shown) [Example 9146] ({CH2CO}-Y[NMeA]HPNL[Hyp]WSW[NMeNle][NMeNle]R[ξC]G-NH2; thioether N-14) | 1 to 9.9 nM
11 | CCCC[C@H]1C(=O)N(C)[C@@H](CCCC)C(=O)N[C@@H](CCCNC(=N)N)C(=O)NC(C(=O)NCC(N)=O)CSCC(=O)N[C@@H](Cc2ccc(O)cc2)C(=O)N(C)[C@@H](C)C(=O)N[C@@H](Cc2cnc[nH]2)C(=O)N2CCC[C@H]2C(=O)N[C@@H](CC(N)=O)C(=O)N[C@@H](CC(C)C)C(=O)N2C[C@H](O)C[C@H]2C(=O)N[C@@H](Cc2c[nH]c3ccccc23)C(=O)N[C@@H](CO)C(=O)N[C@@H](Cc2csc3ccccc23)C(=O)N1C (stereo partly shown) [Example 9147] ({CH2CO}-Y[NMeA]HPNL[Hyp]WS[Bta][NMeNle][NMeNle]R[ξC]G-NH2; thioether N-14) | 1 to 9.9 nM
12 | CCCC[C@H]1C(=O)N(C)[C@@H](CCCC)C(=O)N[C@@H](CCCNC(=N)N)C(=O)NC(C(=O)NCC(N)=O)CSCC(=O)N[C@@H](Cc2ccc(O)cc2)C(=O)N(C)[C@@H](C)C(=O)N[C@@H](CC(N)=O)C(=O)N2CCC[C@H]2C(=O)N[C@@H](CCO)C(=O)N[C@@H](CC(C)C)C(=O)N2CCC[C@H]2C(=O)N[C@@H](Cc2c[nH]c3ccccc23)C(=O)N[C@@H](CO)C(=O)N[C@@H](Cc2c[nH]c3ccccc23)C(=O)N1C (stereo partly shown) [Example 9148] ({CH2CO}-Y[NMeA]NP[hSer]LPWSW[NMeNle][NMeNle]R[ξC]G-NH2; thioether N-14) | 1000 to 10000 nM
13 | CCCC[C@H]1C(=O)N(C)[C@@H](CCCC)C(=O)N[C@@H](CCCNC(=N)N)C(=O)NC(C(=O)NCC(N)=O)CSCC(=O)N[C@@H](Cc2ccc(O)cc2)C(=O)N(C)[C@@H](C)C(=O)N[C@@H](CC(N)=O)C(=O)N2CCC[C@H]2C(=O)N[C@@H](CCO)C(=O)N[C@@H](CC(C)C)C(=O)N2C[C@H](O)C[C@H]2C(=O)N[C@@H](Cc2c[nH]c3ccccc23)C(=O)N[C@@H](CO)C(=O)N[C@@H](Cc2csc3ccccc23)C(=O)N1C (stereo partly shown) [Example 9150] ({CH2CO}-Y[NMeA]NP[hSer]L[Hyp]WS[Bta][NMeNle][NMeNle]R[ξC]G-NH2; thioether N-14) | 1 to 9.9 nM
14 | CCCC[C@H]1C(=O)N(C)[C@@H](CCCC)C(=O)N[C@@H](CCCN)C(=O)NC(C(=O)NCC(N)=O)CSCC(=O)N[C@@H](Cc2ccc(O)cc2)C(=O)N(C)[C@@H](C)C(=O)N[C@@H](CC(N)=O)C(=O)N2CCC[C@H]2C(=O)N[C@@H](CC(N)=O)C(=O)N[C@@H](CC(C)C)C(=O)N2CCC[C@H]2C(=O)N[C@@H](Cc2c[nH]c3ccccc23)C(=O)N[C@@H](CO)C(=O)N[C@@H](Cc2c[nH]c3ccccc23)C(=O)N1C (stereo partly shown) [Example 9155] ({CH2CO}-Y[NMeA]NPNLPWSW[NMeNle][NMeNle][Orn][ξC]G-NH2; thioether N-14) | 1 to 9.9 nM
15 | CCCC[C@H]1C(=O)N(C)[C@@H](CCCC)C(=O)N[C@@H](CCCN)C(=O)NC(C(=O)NCC(N)=O)CSCC(=O)N[C@@H](Cc2ccc(O)cc2)C(=O)N(C)[C@@H](C)C(=O)N[C@@H](CC(N)=O)C(=O)N2CCC[C@H]2C(=O)N[C@@H](CC(N)=O)C(=O)N[C@@H](CC(C)C)C(=O)N2C[C@H](O)C[C@H]2C(=O)N[C@@H](Cc2c[nH]c3ccccc23)C(=O)N[C@@H](CO)C(=O)N[C@@H](Cc2c[nH]c3ccccc23)C(=O)N1C (stereo partly shown) [Example 9157] ({CH2CO}-Y[NMeA]NPNL[Hyp]WSW[NMeNle][NMeNle][Orn][ξC]G-NH2; thioether N-14) | 1 to 9.9 nM

Same assay, conditions: PD-L1-His 10 nM, PD-1-Ig 20 nM; read-out: HTRF Human PD-L1/PD-1 Binding Assay IC50

Row | IC50 | SMILES
16 | 1000 nM | CCCC[C@H]1C(=O)N(C)[C@@H](CCCC)C(=O)N[C@@H](CCCNC(=N)N)C(=O)NC(C(=O)NCC(N)=O)CSCC(=O)N[C@@H](Cc2ccc(O)cc2)C(=O)N(C)[C@@H](C)C(=O)N[C@@H](CC(N)=O)C(=O)N2CCC[C@H]2C(=O)N[C@@H](CCO)C(=O)N[C@@H](CC(C)C)C(=O)N2CCC[C@H]2C(=O)N[C@@H](Cc2c[nH]c3ccccc23)C(=O)N[C@@H](CO)C(=O)N[C@@H](Cc2csc3ccccc23)C(=O)N1C (stereo partly shown) [Example 9149] ({CH2CO}-Y[NMeA]NP[hSer]LPWS[Bta][NMeNle][NMeNle]R[ξC]G-NH2; thioether N-14)
